The text below walks through data of paper PMC11582101, “Unlocking the potential: unveiling tyrphostins with Michael-reactive cyanoacrylate motif as promising inhibitors of human 5-lipoxygenase” (Pflugers Archiv, 2024).

Values joined by “and” are separate entries in the source; they are usually repeats but may differ in a detail not shown here. Identical values can stand only once. “Also recorded” adds a separate entry of the source. Where only a bound is given, the exact number is not on record here.

Data set [1] relates to Her2/ErbB2. Further details: method as in PMID 7892601. To be noted: original target of AG879; cited from earlier work.
The target of data set [2] is T1, 12-LO (Homo sapiens, UniProt P18054).
T1 sequence (P18054 1-663): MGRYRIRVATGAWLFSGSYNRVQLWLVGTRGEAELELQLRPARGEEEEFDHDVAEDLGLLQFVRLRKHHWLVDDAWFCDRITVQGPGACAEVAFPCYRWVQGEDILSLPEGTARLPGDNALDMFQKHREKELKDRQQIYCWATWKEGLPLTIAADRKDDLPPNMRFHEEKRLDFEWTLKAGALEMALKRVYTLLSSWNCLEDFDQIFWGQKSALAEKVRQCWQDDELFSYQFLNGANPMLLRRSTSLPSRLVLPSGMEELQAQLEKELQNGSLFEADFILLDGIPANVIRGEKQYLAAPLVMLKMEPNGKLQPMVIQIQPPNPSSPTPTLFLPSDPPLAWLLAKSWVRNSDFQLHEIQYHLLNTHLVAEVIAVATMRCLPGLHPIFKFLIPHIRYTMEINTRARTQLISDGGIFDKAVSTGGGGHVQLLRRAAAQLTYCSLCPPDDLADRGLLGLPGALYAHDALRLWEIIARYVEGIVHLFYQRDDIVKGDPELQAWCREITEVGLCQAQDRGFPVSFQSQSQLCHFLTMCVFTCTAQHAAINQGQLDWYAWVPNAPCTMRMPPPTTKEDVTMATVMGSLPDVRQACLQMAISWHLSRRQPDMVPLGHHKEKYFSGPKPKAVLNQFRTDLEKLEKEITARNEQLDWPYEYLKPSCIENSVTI
Put plainly: 12-HETE formation in platelets. To be noted: 20 µM AA, 2.5 µM A23187, n = 3–6.

Data set [3] has as its target T2, 5-LO (Homo sapiens, UniProt P09917).
T2 sequence (P09917 1-674): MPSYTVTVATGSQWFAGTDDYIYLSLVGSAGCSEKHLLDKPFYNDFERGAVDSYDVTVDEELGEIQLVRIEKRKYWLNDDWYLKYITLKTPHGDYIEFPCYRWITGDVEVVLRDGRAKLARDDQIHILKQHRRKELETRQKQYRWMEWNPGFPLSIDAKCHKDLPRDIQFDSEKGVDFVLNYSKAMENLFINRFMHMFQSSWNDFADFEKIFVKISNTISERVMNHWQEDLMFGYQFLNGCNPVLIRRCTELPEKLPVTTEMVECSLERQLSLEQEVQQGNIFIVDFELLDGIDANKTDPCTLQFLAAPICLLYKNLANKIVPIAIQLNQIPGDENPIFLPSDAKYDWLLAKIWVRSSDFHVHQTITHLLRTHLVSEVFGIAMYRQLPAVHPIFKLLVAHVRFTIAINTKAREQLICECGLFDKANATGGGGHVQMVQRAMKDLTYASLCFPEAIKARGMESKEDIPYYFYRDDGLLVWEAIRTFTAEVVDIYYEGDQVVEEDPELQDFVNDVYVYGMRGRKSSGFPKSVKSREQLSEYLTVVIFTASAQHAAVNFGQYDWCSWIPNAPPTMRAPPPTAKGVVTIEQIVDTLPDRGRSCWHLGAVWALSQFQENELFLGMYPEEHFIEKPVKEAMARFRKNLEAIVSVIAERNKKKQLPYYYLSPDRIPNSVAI
Description: 5-LO product formation in intact PMNL.

Data set [4] deals with 15-LO. Put plainly: 15-HETE formation in intact PMNL. The settings on record: intact PMNL, 20 µM AA, 2.5 µM A23187, (95% CI), n = 3–6; for IC50: read-out: IC50 for inhibition of 15-HETE formation, PMNL.
In data set [5] the test system is U2OS cells. The settings on record: human, 10 µM.
For data set [6], the target named is T3, r5-LO_WT (Homo sapiens, UniProt P09917).
T3 construct: made in house; host or cells: E. coli BL21 (DE3)
T3 sequence (P09917 1-674): T2 sequence (P09917 1-674)
Description: Covalent inhibitor binding by mass spectrometry, r5-LO_WT. The settings on record: 100 µM compound; for inhibitor adducts to r5-LO_WT detected by mass spectrometry: 20 µM protein, at least 1 h RT.

The target of data set [7] is T2, 5-LO. Put plainly: 5-LO activity in PMNL homogenates. In kind it is biochemical. On the set-up: endogenous in cells; host or cells: human PMNL (polymorphonuclear leukocytes). To be noted: sonicated PMNL, 20 µM AA. The protocol:
Samples were kept on ice, and 1 mM ATP or 1 mM ATP/1 mM GSH was added. The inhibitors were preincubated with the cell homogenate on ice for 15 min before heating the samples at 37 °C for 30 s. […] Solid phase extraction and UPLC analysis were performed as described above.

Data set [8] concerns the target T4, r5-LO_4C (Homo sapiens, UniProt P09917, C160S/C301S/C417S/C419S).
T4 construct: made in house; host or cells: E. coli BL21 (DE3)
T4 sequence (P09917 2-674 C160S/C301S/C417S/C419S limits assumed): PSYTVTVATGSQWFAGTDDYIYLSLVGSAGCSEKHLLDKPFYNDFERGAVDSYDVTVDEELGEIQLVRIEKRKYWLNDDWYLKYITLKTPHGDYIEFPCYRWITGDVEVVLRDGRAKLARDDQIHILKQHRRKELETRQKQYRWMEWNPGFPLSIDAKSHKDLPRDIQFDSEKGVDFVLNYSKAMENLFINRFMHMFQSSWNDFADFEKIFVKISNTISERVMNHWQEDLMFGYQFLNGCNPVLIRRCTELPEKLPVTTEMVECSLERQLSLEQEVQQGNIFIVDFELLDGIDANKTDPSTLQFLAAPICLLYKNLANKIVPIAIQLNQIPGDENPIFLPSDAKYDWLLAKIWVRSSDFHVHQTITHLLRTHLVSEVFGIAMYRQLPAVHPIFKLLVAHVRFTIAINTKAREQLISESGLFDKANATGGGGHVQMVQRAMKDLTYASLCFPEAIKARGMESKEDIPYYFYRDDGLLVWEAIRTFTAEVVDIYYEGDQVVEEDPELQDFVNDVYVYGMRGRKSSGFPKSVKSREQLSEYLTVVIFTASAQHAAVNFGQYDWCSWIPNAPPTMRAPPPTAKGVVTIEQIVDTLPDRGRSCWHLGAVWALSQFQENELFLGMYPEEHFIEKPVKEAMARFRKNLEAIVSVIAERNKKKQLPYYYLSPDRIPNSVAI
Description: Covalent inhibitor binding by mass spectrometry, r5-LO_4C. To be noted: 20 µM protein, 100 µM compound, at least 1 h RT. The method, then:
r5-LO_WT or r5-LO_4C protein was diluted to 20 µM in gel filtration buffer; 100 µM of compound was added and incubated for a minimum time of 1 h at RT before 10 µL was injected onto a 1260 Infinity HPLC (Agilent, Santa Clara, USA) using a C3 column with a flow rate of 0.4 mL/min as published before. The HPLC was coupled with a 6230 electrospray ionization TOF LC/MS detector (Agilent, Santa Clara, CA, USA). Data were acquired using the Agilent MassHunter Acquisition software and processed with the Agilent Mass Hunter BioConfirm software (B.08.00). Peak intensities were calculated and normalized to the highest count of each data set with GraphPad Prism version 7.05 (GraphPad Software, Boston, MA, USA).
Fig. 3 Mass spectra of r5-LO_WT or r5-LO_4C incubated with inhibitors (blue or red line). 20 µM r5-LO_WT (left) or r5-LO_4C (right) was incubated with 100 µM degrasyn (A), AG556 (B), tyrphostin A9 (C), AG879 (D), or CAPE (E) at RT for at least 1 h before analysis. Measurement was performed using an Agilent 1260 Infinity HPLC with an Agilent 6230 TOF LC/MS detector. Obtained data were processed using Mass Hunter BioConfirm (B.08.00), and resulted counts were normalized to the highest peak of the spectrum

Data set [9] relates to U2OS cells. Description: Multiplex live-cell high-content assay. To be noted: 10 µM, 48 h.

As to `CC(C)(C)c1cc(/C=C(\C#N)C(N)=S)cc(C(C)(C)C)c1O` [AG879], the IC50 in data set [1] is 1000 nM; in data set [3] (IC50 for inhibition of 5-LO product formation, PMNL, intact PMNL, 20 µM AA, 2.5 µM A23187, (95% CI), n = 3–6), 400 nM and 420 nM; in [4], more than 25000 nM. Further, the “IC50 for inhibition of 12-HETE formation, platelets” value in data set [2] is “no inhibition”. Besides, the “normalized healthy cell count” value in data set [5] is on record as “around 75%”. The “inhibitor adducts to r5-LO_WT detected by mass spectrometry” value in data set [6] was “did not detect mass shifts”.

For `CCC[C@H](NC(=O)/C(C#N)=C/c1cccc(Br)n1)c1ccccc1` [Degrasyn], the IC50 in [7] (with 1 mM GSH, read-out: IC50 5-LO, PMNL homogenates + GSH) stood at 4200 nM; in data set [7] (without GSH, read-out: IC50 5-LO, PMNL homogenates), 890 nM; in data set [3], 620 nM; in [4], 7900 nM. Further, in data set [2], the “IC50 for inhibition of 12-HETE formation, platelets” value was “no inhibition”. The “IC50 for inhibition of 15-HETE formation, PMNL” value in data set [4] is “moderate inhibition”. Further, the “normalized healthy cell count” value in data set [5] is given as “below 50%”. Further, the “increase of mitochondrial mass” value in data set [5] (48 h) is “more than 50%”. For the same compound, the “inhibitor adducts to r5-LO_4C detected by mass spectrometry” value in data set [8] is “only one adduct”. In [9], the “phenotypic properties (tubulin, mitochondrial mass, membrane permeability, cell morphology)” value was “additional effects on microtubules and on membrane integrity”. Further, the “inhibitor adducts to r5-LO_WT detected by mass spectrometry” value in [6] is reported as “covalently bound to up to four cysteines; also recorded: four peaks”. For the same compound, in data set [6] (20 µM r5-LO_WT), the “mass shift of inhibitor adduct” value is given as 384 Da.
